Test results taken from ChEMBL document CHEMBL4028802, “DILIrank: the largest reference drug list ranked by the risk for developing drug-induced liver injury in humans” (Drug Discov Today, 2016).

How the values were obtained:
Homo sapiens [1] = species: Homo sapiens; experiment: Liver toxicity in human assessed as induction of drug-induced liver injury by measuring severity class index
Homo sapiens [2] = species: Homo sapiens; experiment: Liver toxicity in human assessed as induction of drug-induced liver injury by measuring verified drug-induced liver injury concern status
Wherever DILI severity class is given: key of the grades not given here.

**Q.** Which results are given for C[N+]1(C)[C@@H]2C[C@@H](OC(=O)[C@H](CO)c3ccccc3)C[C@H]1[C@@H]1O[C@@H]12.[Br-] [METHSCOPOLAMINE BROMIDE]?
**A.** DILI_severity_class (Homo sapiens [1]): 0; DILI_Concern (Homo sapiens [2]): No-Dili-Concern

**Q.** For CN1C(=O)CCS(=O)(=O)C1c1ccc(Cl)cc1 (stereo not drawn) [CHLORMEZANONE], which DILI_severity_class (Homo sapiens [1]) is on record?
**A.** 8

**Q.** And the DILI_Concern (Homo sapiens [2])?
**A.** Most-Dili-Concern

**Q.** Which results are given for CC[C@H](C)[C@H](NC(=O)[C@H](CC(=O)O)NC(=O)[C@H](CC(C)C)NC(=O)[C@H](CC(C)C)NC(=O)[C@H](CCCCN)NC(=O)[C@H](CCCN=C(N)N)NC(=O)[C@H](CC(N)=O)NC(=O)[C@H](CO)NC(=O)[C@H](Cc1cnc[nH]1)NC(=O)[C@H](C)NC(=O)[C@H](CCC(N)=O)NC(=O)[C@H](CCC(N)=O)NC(=O)[C@H](C)NC(=O)[C@H](CC(C)C)NC(=O)[C@H](CCC(N)=O)NC(=O)[C@H](CC(=O)O)NC(=O)[C@H](C)NC(=O)[C@H](CCCCN)NC(=O)[C@@H](NC(=O)[C@H](CCSC)NC(=O)[C@H](CCC(=O)O)NC(=O)[C@H](CC(C)C)NC(=O)[C@@H](NC(=O)[C@H](CCC(=O)O)NC(=O)[C@H](CCCN=C(N)N)NC(=O)[C@H](CC(C)C)NC(=O)[C@H](CC(C)C)NC(=O)[C@H](Cc1cnc[nH]1)NC(=O)[C@H](Cc1ccccc1)NC(=O)[C@@H](NC(=O)[C@H](CC(C)C)NC(=O)[C@H](CC(=O)O)NC(=O)[C@H](CC(C)C)NC(=O)[C@H](CO)NC(=O)[C@@H](NC(=O)[C@@H]1CCCN1C(=O)[C@@H]1CCCN1C(=O)[C@H](CCC(=O)O)NC(=O)[C@H](CCC(N)=O)NC(=O)[C@@H](N)CO)[C@@H](C)CC)[C@@H](C)O)C(C)C)[C@@H](C)O)C(=O)N[C@@H](C)C(N)=O?
**A.** DILI_severity_class (Homo sapiens [1]): 0; DILI_Concern (Homo sapiens [2]): No-Dili-Concern

**Q.** Which DILI_severity_class (Homo sapiens [1]) does the source give for Nc1cc(-c2ccncc2)c[nH]c1=O [INAMRINONE] here?
**A.** 5

**Q.** And the DILI_Concern (Homo sapiens [2])?
**A.** Ambiguous-Dili-Concern

**Q.** O=S([O-])([O-])=S.[Na+].[Na+] was tested. Which DILI_severity_class (Homo sapiens [1]) did it give?
**A.** 0

**Q.** And the DILI_Concern (Homo sapiens [2])?
**A.** No-Dili-Concern

**Q.** For CO/N=C1\CN(c2nc3c(cc2F)c(=O)c(C(=O)O)cn3C2CC2)CC1CN (stereo not drawn) [GEMIFLOXACIN], which DILI_severity_class (Homo sapiens [1]) is on record?
**A.** 3

**Q.** And the DILI_Concern (Homo sapiens [2])?
**A.** Less-Dili-Concern

**Q.** Which results are given for NC(N)=Nc1nc(CSCCC(N)=NS(N)(=O)=O)cs1 [FAMOTIDINE]?
**A.** DILI_severity_class (Homo sapiens [1]): 3; DILI_Concern (Homo sapiens [2]): Less-Dili-Concern

**Q.** Which DILI_severity_class (Homo sapiens [1]) does the source give for C[C@H](CCC(=O)O)[C@H]1CC[C@H]2[C@@H]3[C@@H](O)C[C@@H]4C[C@H](O)CC[C@]4(C)[C@H]3CC[C@]12C [URSODIOL] here?
**A.** 0

**Q.** What about the DILI_Concern (Homo sapiens [2]) of the same compound?
**A.** Ambiguous-Dili-Concern

**Q.** With NS(=O)(=O)c1cc2c(cc1C(F)(F)F)NCNS2(=O)=O [HYDROFLUMETHIAZIDE] as the compound, how does the DILI_severity_class (Homo sapiens [1]) read?
**A.** 2

**Q.** And the DILI_Concern (Homo sapiens [2])?
**A.** Ambiguous-Dili-Concern

**Q.** What does the source list for CCCc1cc(=O)[nH]c(=S)[nH]1 [PROPYLTHIOURACIL]?
**A.** DILI_severity_class (Homo sapiens [1]): 8; DILI_Concern (Homo sapiens [2]): Most-Dili-Concern

**Q.** Which DILI_severity_class (Homo sapiens [1]) does the source give for Nc1nc2ccc(OC(F)(F)F)cc2s1 [RILUZOLE] here?
**A.** 8

**Q.** And the DILI_Concern (Homo sapiens [2])?
**A.** Most-Dili-Concern

**Q.** For CCCCCCCCCC(=O)O[C@H]1CC[C@H]2[C@@H]3CCC4=CC(=O)CC[C@@H]4[C@H]3CC[C@]12C [NANDROLONE DECANOATE], which DILI_severity_class (Homo sapiens [1]) is on record?
**A.** 7

**Q.** And the DILI_Concern (Homo sapiens [2])?
**A.** Most-Dili-Concern

**Q.** With O=c1[nH]cnc2c1ncn2[C@H]1CC[C@@H](CO)O1 [DIDANOSINE] as the compound, how does the DILI_severity_class (Homo sapiens [1]) read?
**A.** 8

**Q.** What about the DILI_Concern (Homo sapiens [2]) of the same compound?
**A.** Most-Dili-Concern

**Q.** How did the DILI_severity_class (Homo sapiens [1]) turn out when CSCC[C@H](NC(=O)[C@H](Cc1c[nH]c2ccccc12)NC(=O)CCNC(=O)OC(C)(C)C)C(=O)N[C@@H](CC(=O)O)C(=O)N[C@@H](Cc1ccccc1)C(N)=O [PENTAGASTRIN] was run?
**A.** 0

**Q.** What about the DILI_Concern (Homo sapiens [2]) of the same compound?
**A.** No-Dili-Concern

**Q.** With NS(=O)(=O)c1cc(C2(O)NC(=O)c3ccccc32)ccc1Cl (stereo not drawn) [CHLORTHALIDONE] as the compound, how does the DILI_severity_class (Homo sapiens [1]) read?
**A.** 2

**Q.** And the DILI_Concern (Homo sapiens [2])?
**A.** Ambiguous-Dili-Concern

**Q.** Which DILI_severity_class (Homo sapiens [1]) does the source give for Cc1cnc(NC(=O)C2=C(O)c3ccccc3S(=O)(=O)N2C)s1 [MELOXICAM] here?
**A.** 3

**Q.** What about the DILI_Concern (Homo sapiens [2]) of the same compound?
**A.** Less-Dili-Concern

**Q.** How did the DILI_severity_class (Homo sapiens [1]) turn out when NC[C@@H]1O[C@H](O[C@H]2[C@@H](O)[C@H](O[C@@H]3[C@@H](O)[C@H](N)C[C@H](N)[C@H]3O[C@H]3O[C@H](CO)[C@@H](O)[C@H](O)[C@H]3N)O[C@@H]2CO)[C@H](N)[C@@H](O)[C@@H]1O [PAROMOMYCIN] was run?
**A.** 0

**Q.** And the DILI_Concern (Homo sapiens [2])?
**A.** No-Dili-Concern

**Q.** How did the DILI_severity_class (Homo sapiens [1]) turn out when O=C(O)c1ccccc1-c1c2ccc(=O)cc-2oc2cc(O)ccc12 was run?
**A.** 0

**Q.** What about the DILI_Concern (Homo sapiens [2]) of the same compound?
**A.** No-Dili-Concern

**Q.** Which results are given for CC(=O)O[C@H]1C(=O)[C@@]2(C)[C@H]([C@H](OC(=O)c3ccccc3)[C@]3(O)C[C@H](OC(=O)[C@H](O)[C@@H](NC(=O)c4ccccc4)c4ccccc4)C(C)=C1C3(C)C)[C@]1(OC(C)=O)CO[C@@H]1C[C@@H]2O [PACLITAXEL]?
**A.** DILI_severity_class (Homo sapiens [1]): 4; DILI_Concern (Homo sapiens [2]): Less-Dili-Concern

**Q.** C[C@]12CC[C@@H]3c4ccc(O)cc4C[C@@H](CCCCCCCCC[S+]([O-])CCCC(F)(F)C(F)(F)F)[C@H]3[C@@H]1CC[C@@H]2O (stereo partly drawn) [FULVESTRANT] was tested. Which DILI_severity_class (Homo sapiens [1]) did it give?
**A.** 7

**Q.** What about the DILI_Concern (Homo sapiens [2]) of the same compound?
**A.** Ambiguous-Dili-Concern

**Q.** Which DILI_severity_class (Homo sapiens [1]) does the source give for C[N+](C)(C)C[C@H](O)CC(=O)[O-] [LEVOCARNITINE] here?
**A.** 0

**Q.** What about the DILI_Concern (Homo sapiens [2]) of the same compound?
**A.** No-Dili-Concern

**Q.** For CUPRIC CHLORIDE, which DILI_severity_class (Homo sapiens [1]) is on record?
**A.** 0

**Q.** What about the DILI_Concern (Homo sapiens [2]) of the same compound?
**A.** No-Dili-Concern

**Q.** For C[C@]12CCC(=O)C=C1CC[C@@H]1[C@@H]2[C@@H](O)C[C@@]2(C)[C@H]1CC[C@]2(O)C(=O)CO [HYDROCORTISONE], which DILI_severity_class (Homo sapiens [1]) is on record?
**A.** 0

**Q.** What about the DILI_Concern (Homo sapiens [2]) of the same compound?
**A.** No-Dili-Concern

**Q.** Which DILI_severity_class (Homo sapiens [1]) does the source give for Cc1cn([C@@H]2C[C@@H](O)[C@H](CO)O2)c(=O)[nH]c1=O [TELBIVUDINE] here?
**A.** 2

**Q.** And the DILI_Concern (Homo sapiens [2])?
**A.** Ambiguous-Dili-Concern

**Q.** Which results are given for CCOC(=O)CN[C@@H](C(=O)N1CC[C@H]1C(=O)NCc1ccc(/C(N)=N\O)cc1)C1CCCCC1 [XIMELAGATRAN]?
**A.** DILI_severity_class (Homo sapiens [1]): 8; DILI_Concern (Homo sapiens [2]): Most-Dili-Concern

**Q.** Which results are given for CC(C)(C)NCC(O)c1ccc(O)c(CO)c1 (stereo not drawn) [ALBUTEROL]?
**A.** DILI_severity_class (Homo sapiens [1]): 0; DILI_Concern (Homo sapiens [2]): No-Dili-Concern

**Q.** How did the DILI_severity_class (Homo sapiens [1]) turn out when CC[C@@]1(O)C(=O)OCc2c1cc1n(c2=O)Cc2cc3c(CN(C)C)c(O)ccc3nc2-1 [TOPOTECAN] was run?
**A.** 0

**Q.** And the DILI_Concern (Homo sapiens [2])?
**A.** No-Dili-Concern

**Q.** With Cc1ccc(C(=O)c2cc(O)c(O)c([N+](=O)[O-])c2)cc1 [TOLCAPONE] as the compound, how does the DILI_severity_class (Homo sapiens [1]) read?
**A.** 8

**Q.** What about the DILI_Concern (Homo sapiens [2]) of the same compound?
**A.** Most-Dili-Concern

**Q.** For CCc1oc2ccccc2c1C(=O)c1cc(Br)c(O)c(Br)c1 [BENZBROMARONE], which DILI_severity_class (Homo sapiens [1]) is on record?
**A.** 8

**Q.** What about the DILI_Concern (Homo sapiens [2]) of the same compound?
**A.** Most-Dili-Concern

**Q.** How did the DILI_severity_class (Homo sapiens [1]) turn out when OC(CCN1CCCC1)(c1ccccc1)C1CCCCC1 (stereo not drawn) [PROCYCLIDINE] was run?
**A.** 0

**Q.** What about the DILI_Concern (Homo sapiens [2]) of the same compound?
**A.** No-Dili-Concern

**Q.** For CC(=O)[C@]1(O)Cc2c(O)c3c(c(O)c2[C@@H](O[C@H]2C[C@H](N)[C@H](O)[C@H](C)O2)C1)C(=O)c1ccccc1C3=O [IDARUBICIN], which DILI_severity_class (Homo sapiens [1]) is on record?
**A.** 3

**Q.** And the DILI_Concern (Homo sapiens [2])?
**A.** Ambiguous-Dili-Concern

**Q.** Cc1onc(-c2c(Cl)cccc2Cl)c1C(=O)N[C@@H]1C(=O)N2[C@@H]1SC(C)(C)[C@@H]2C(=O)O [DICLOXACILLIN] was tested. Which DILI_severity_class (Homo sapiens [1]) did it give?
**A.** 3

**Q.** What about the DILI_Concern (Homo sapiens [2]) of the same compound?
**A.** Less-Dili-Concern

**Q.** What does the source list for CCc1nc(N)nc(N)c1-c1ccc(Cl)cc1 [PYRIMETHAMINE]?
**A.** DILI_severity_class (Homo sapiens [1]): 3; DILI_Concern (Homo sapiens [2]): Less-Dili-Concern

**Q.** With CC(C)C[C@H]1C(=O)N2CCC[C@H]2[C@]2(O)O[C@](NC(=O)[C@@H]3C=C4c5cccc6[nH]c(Br)c(c56)C[C@H]4N(C)C3)(C(C)C)C(=O)N12 [BROMOCRIPTINE] as the compound, how does the DILI_severity_class (Homo sapiens [1]) read?
**A.** 3

**Q.** And the DILI_Concern (Homo sapiens [2])?
**A.** Less-Dili-Concern
